Source: patent US11382907B2, “Methods and compositions for treating aging-associated impairments using CCR3-inhibitors” (Alkahest, Inc., priority 2017, dated 2022)

Tests used:
[1] = Tissue distribution of [14C]-radiolabeled Compound 1 (LSC, whole body autoradiography); assay type: in vivo, C57BL/6JOlaHsd mice; details: 10 mg/kg oral, [14C]-label; 1, 24, 168 hours
Experimental: The distribution of Compound 1 in mouse tissues was determined after oral administration of which was [^14C]-radiolabeled (“Labeled Compound”) to male pigmented C57BL/6JOlaHsd mice (Harlan Labs, BV). The Labeled Compound was administered at 10 mg/kg of body weight, corresponding to 17 μmol/kg. One animal was sacrificed after 1, 24, and 168 hours post-administration. Blood, plasma, and eye radioactivity concentrations were measured using liquid scintillation counting (LSC). Tissue and organ concentrations were determined by whole body autoradiography technique (QWBA). […]
The following sections were taken at different levels through the embedded animal, and whole body sections selected at 5-7 levels in order to allow for quantitative evaluation of radioactivity: adrenal glands; blood; bone marrow; brain; eye (lens); epididymis; fat (white and brown); Harderian gland; heart; kidneys; liver; lung; muscle; pituitary; pancreas; prostate, spinal cord; spleen salivary gland; skin; testis; thyroid; thymus; uveal tract. […]
FIG. 7 depicts a chart of values reporting the area under the curve (AUC) for all three time points, and quantifies each tissue's exposure to the Labeled POI after administration of the compound.

[2] = test system: twenty-four-month-old C57 mice; assay: T maze test in aged mice; assay type: in vivo; details: 4 weeks continuous infusion by osmotic pump
Experimental: The Water Maze was filled with water at least 24 hours prior to the test to allow it to reach room temperature. The water was dyed with white latex paint to make the animals visible for tracking and to allow for the use of a hidden platform. Two distinct visual cues were placed at the end of both T-arms of the T-Maze insert. On day 1 animals were given 4 trials each with a visible platform and a 30 min inter-trial interval. Animals were given 60 seconds to reach the platform. […] The goal arm was switched after every third mouse and both treatment groups had equal numbers of right and left turn goal arms. After each trial the mice were placed in an empty cage with blue pads and allowed to dry off under a red light lamp before being placed back into their home cage. Day 2 is the testing day, where animals are subjected to the same test of 4 trials each and a 30 min inter trial interval, but with a hidden platform. Animals were scored for right or wrong choice and for latency to reach the platform, and a binomial test was conducted to compare success rates between control and compound-treated mice. All trials were recorded using TopScan.
Twenty-four-month-old C57 mice were treated for 4 weeks with continuous infusion of Compound 1 or vehicle by Alzet osmotic pump, which were implanted to continuously deliver the two treatments. […]

[3] = test system: twenty-four-month-old C57 mice; assay: Rotarod test for motor coordination in aged mice; assay type: in vivo; details: 4 weeks continuous infusion by osmotic pump
Experimental: The mice were trained in the rotarod for 3 trials up to 100 seconds each, the rotarod being a test of motor coordination. Success or failure was recorded on the last trial, with success defined by a latency to fall of >90 seconds. A binomial test was conducted to compare success rates between control and compound-treated mice.
Twenty-four-month-old C57 mice were treated for 4 weeks with continuous infusion of Compound 1 or vehicle by Alzet osmotic pump, which were implanted to continuously deliver the two treatments.
Treatment Groups: • Treatment Group 1, Old Controls: Aged C57BL/6 mice (n=15), aged 23 months, received infusion of vehicle by Alzet mini-pump, model 2002 (0.5 uL/hr), for four weeks with one replacement. • Treatment Group 2, Compound 1 (dose 2) in Old: Aged C57BL/6 mice (n=15), aged 23 months, received infusion of ˜50 mg/ml Compound 1 by Alzet mini-pump, model 2002 (0.5 uL/hr), for four weeks with one replacement.

IL-1beta mRNA = assay: qPCR of IL-1beta mRNA in cortical brain tissue of mice given daily LPS; assay type: in vivo, C57Bl/6 mice; details: 3-month-old mice, daily LPS IP 7 weeks, 30 mg/kg PO BID 4 weeks
Text: Snap-frozen hemibrains were dissected out into cortex, hippocampus, striatum, and thalamus. The cortex was split into three homogeneous parts and one part was used for RNA isolation. RNA was isolated using the Prolink RNA Mini Kit (Thermo Fisher Scientific #12183025). cDNA was made using Taqman RT Kit (Thermo Fisher Sci #N8080234). qPCR was run on a Quant Studio 6 using custom made Taqman Multiplex Primers for IL-1beta and GAPDH. All samples were run together on a single plate and analyzed for ddCT relative to their endogenous control first and then relative to the control group.
Three-month-old C57 mice were given daily doses of lipopolysaccharide (LPS) 0.5 mg/kg IP to induce inflammation and treated with Compound 1 for up to 4 weeks. […]

CCR3 = target: T1, CCR3 (Mus musculus, UniProt P51678); assay: cell line receptor binding (Ki for the compound in mice); details: determined by cell line receptor binding
T1 construct: host or cells: unnamed cell line
T1 sequence (P51678 1-359): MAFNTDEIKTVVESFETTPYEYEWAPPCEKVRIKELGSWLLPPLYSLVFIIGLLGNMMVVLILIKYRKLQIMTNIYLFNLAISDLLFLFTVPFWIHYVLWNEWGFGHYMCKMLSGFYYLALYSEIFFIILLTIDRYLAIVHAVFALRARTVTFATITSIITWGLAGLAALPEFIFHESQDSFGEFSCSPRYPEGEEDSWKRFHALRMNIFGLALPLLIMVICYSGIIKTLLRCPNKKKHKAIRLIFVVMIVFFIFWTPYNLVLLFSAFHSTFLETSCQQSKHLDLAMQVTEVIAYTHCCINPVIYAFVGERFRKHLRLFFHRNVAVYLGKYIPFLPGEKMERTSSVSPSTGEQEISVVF

## Cc1cc(C(=O)N(C)C)cc(NC(=O)[C@H]2CCC(=O)N2C2CCN(Cc3ccc(Cl)c(C)c3)CC2)n1 [Compound 1]
[1]
  crossing of the blood-brain barrier (tissue AUC of radioactivity): does not cross the blood-brain barrier (BBB) at significant levels
[2]
  T maze success versus vehicle (binomial test): succeeded more than vehicle-treated mice
[3]; control 20%
  proportion of mice able to stay on the rod for longer than 90 seconds: 47%
[3]; success = latency to fall >90 seconds
  Rotarod success versus vehicle (binomial test): succeeded more than vehicle-treated mice
IL-1beta mRNA
  IL-1beta mRNA level in brain: significant decrease in IL-1beta expression
CCR3
  Ki: 0.124 µM
